The results in this text go back to PubChem BioAssay AID330 (DTP/NCI, 2004).

Molecules are shown by their SMILES. Where “and” joins values, the source holds several entries; their conditions need not be identical. Identical values can stand only once. Toxic doses and inconclusive results are not listed.

For this experiment, the system named is P388 leukemia ip, CD2F1 mice, survival T/C. Briefly: NCI In Vivo Anticancer Drug Screen. Data for tumor model P388 Leukemia (intraperitoneal) in CD2F1 (CDF1) mice. Conditions: endpoint: median survival time, higher = longer survival. In a few lines:
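Mice carrying the transplanted tumor received test compound or vehicle. Survival was recorded in each group, and the value is the treated-group measurement divided by that of the vehicle-treated control group.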

Setting [1] is: dose: 100.0 mg/kg/injection, schedule: Q01DX009 (ip), vehicle: saline with Tween-80.
Setting [2] is: dose: 200.0 mg/kg/injection, schedule: Q01DX009 (ip), vehicle: saline with Tween-80.
Setting [3] is: dose: 50.0 mg/kg/injection, schedule: Q01DX009 (ip), vehicle: saline with Tween-80.
Where [4] appears, read: dose: 60.0 mg/kg/injection, schedule: Q01DX005 (ip), vehicle: saline with Tween-80.
Setting [5] is: dose: 120.0 mg/kg/injection, schedule: Q01DX005 (ip), vehicle: saline with Tween-80.
Setting [6] is: dose: 240.0 mg/kg/injection, schedule: Q01DX005 (ip), vehicle: saline with Tween-80.

For `CCCCCCC(/C=C/c1ccc(N(C)C)cc1)=N\O`, the T/C reads like this: under setting [1], 93 % of control; under setting [2], 93 % of control.

Turning to `O=C(c1cc2ccccc2o1)N1CCN(Cc2ccccc2)CC1`, the T/C runs as follows: (dose: 50.0 mg/kg/injection, schedule: Q01DX009 (ip), vehicle: Klucel (hydroxypropylcellulose) (HPC)) 102 % of control; (dose: 100.0 mg/kg/injection, schedule: Q01DX009 (ip), vehicle: Klucel (hydroxypropylcellulose) (HPC)) 101 % of control; (dose: 200.0 mg/kg/injection, schedule: Q01DX009 (ip), vehicle: Klucel (hydroxypropylcellulose) (HPC)) 109 % of control.

`CCCCCCCCN1CCCN(/N=C/c2c3c(O)c4c(O)c(C)c5c(c4c2O)C(=O)C(C)(O/C=C/C(OC)C(C)C(OC(C)=O)C(C)C(O)C(C)C(O)C(C)/C=C/C=C(C)C(=O)N3)O5)CC1` (centres undefined): the T/C is 97 % of control under setting [3], 100 % of control under setting [1] and 91 % of control under setting [2].

As to `CCC(C)C(=O)/C=C/c1ccc(Cl)c(Cl)c1` (centres undefined), the T/C was 99 % of control under setting [3], 99 % of control under setting [1] and 99 % of control under setting [2].

For the compound `O=S1(F)=NP(N2CC2)(N2CC2)=NP(N2CC2)(N2CC2)=N1` (centres undefined), the T/C was 86 % of control (dose: 5.0 mg/kg/injection, schedule: Q04DX003 (ip), vehicle: saline); 102 % of control (dose: 10.0 mg/kg/injection, schedule: Q04DX003 (ip), vehicle: saline); 86 % of control (dose: 20.0 mg/kg/injection, schedule: Q04DX003 (ip), vehicle: saline); 234 % of control (dose: 40.0 mg/kg/injection, schedule: Q04DX003 (ip), vehicle: saline).

As for `COC(=O)C(CS)NC(=O)CCNC(=O)OCc1ccccc1` (centres undefined), the T/C (dose: 25.0 mg/kg/injection, schedule: Q04DX003 (ip), vehicle: sodium bicarbonate) was 91 % of control; the T/C (dose: 50.0 mg/kg/injection, schedule: Q04DX003 (ip), vehicle: sodium bicarbonate) was 87 % of control; the T/C (dose: 100.0 mg/kg/injection, schedule: Q04DX003 (ip), vehicle: sodium bicarbonate) was 96 % of control; the T/C (dose: 200.0 mg/kg/injection, schedule: Q04DX003 (ip), vehicle: sodium bicarbonate) is 87 % of control; the T/C (dose: 400.0 mg/kg/injection, schedule: Q04DX003 (ip), vehicle: sodium bicarbonate) was 91 % of control.

With `CCN(CC)CCNCc1cc(Cl)c2cccnc2c1O`, the T/C reads like this: (dose: 50.0 mg/kg/injection, schedule: Q01DX009 (ip), vehicle: saline) 93 % of control; (dose: 100.0 mg/kg/injection, schedule: Q01DX009 (ip), vehicle: saline) 106 % of control.

As to `OCC1OC(n2cnc3c(Br)ncnc32)C(O)C1O` (centres undefined), the T/C was 91 % of control (dose: 50.0 mg/kg/injection, schedule: Q01DX005 (ip), vehicle: saline with Tween-80); 98 % of control (dose: 100.0 mg/kg/injection, schedule: Q01DX005 (ip), vehicle: saline with Tween-80); 91 % of control (dose: 200.0 mg/kg/injection, schedule: Q01DX005 (ip), vehicle: saline with Tween-80).

Take `CCCCCCC(=O)/C=C/c1ccc(OCc2ccccc2)c(OCc2ccccc2)c1`: the T/C was 92 % of control (dose: 6.25 mg/kg/injection, schedule: Q01DX005 (ip), vehicle: saline with Tween-80) and 92 % of control (dose: 12.5 mg/kg/injection, schedule: Q01DX005 (ip), vehicle: saline with Tween-80).

Take `CSCCCNC(=O)c1csc(CCNC(=O)c2ccccc2)n1`: the T/C is, setting by setting: under setting [1], 104 % of control; under setting [2], 109 % of control; (dose: 400.0 mg/kg/injection, schedule: Q01DX009 (ip), vehicle: saline with Tween-80) 104 % of control.

For the compound `CC(=O)SC(C(=O)O)C(SC(C)=O)C(=O)O` (centres undefined), the T/C was 106 % of control (dose: 25.0 mg/kg/injection, schedule: Q01DX009 (ip), vehicle: other); 115 % of control (dose: 50.0 mg/kg/injection, schedule: Q01DX009 (ip), vehicle: other); 102 % of control (dose: 100.0 mg/kg/injection, schedule: Q01DX009 (ip), vehicle: other); 89 % of control (dose: 200.0 mg/kg/injection, schedule: Q01DX009 (ip), vehicle: other).

In the case of `COc1ccc(/C=C/c2ccnc3ccccc23)cc1`, the T/C is, setting by setting: (dose: 6.25 mg/kg/injection, schedule: Q01DX009 (ip), vehicle: saline with Tween-80) 100 % of control; (dose: 12.5 mg/kg/injection, schedule: Q01DX009 (ip), vehicle: saline with Tween-80) 104 % of control; (dose: 25.0 mg/kg/injection, schedule: Q01DX009 (ip), vehicle: saline with Tween-80) 108 % of control.

Regarding `CC(C)CC(NC(=O)OCC[P+](c1ccccc1)(c1ccccc1)c1ccccc1)C(=O)O` (centres undefined), the T/C (dose: 6.25 mg/kg/injection, schedule: Q04DX003 (ip), vehicle: saline) was 102 % of control; the T/C (dose: 12.5 mg/kg/injection, schedule: Q04DX003 (ip), vehicle: saline) was 105 % of control; the T/C (dose: 25.0 mg/kg/injection, schedule: Q04DX003 (ip), vehicle: saline) is 112 % of control; the T/C (dose: 50.0 mg/kg/injection, schedule: Q04DX003 (ip), vehicle: saline) was 121 % of control.

Take `O=C(Cc1nc2ccc([N+](=O)[O-])cc2nc1CC(=O)c1cccnc1)c1cccnc1`: the T/C is 97 % of control under setting [4], 92 % of control under setting [5] and 90 % of control under setting [6].

With `CCOC(=O)C(=O)Nc1cccc(NC(=O)C(=O)OCC)n1`, the T/C by setting is: under setting [4], 100 % of control; under setting [5], 94 % of control.

On to `CC(C)=CCc1c(O)ccc(C(=O)[C@H]2C(c3ccc(O)cc3O)CC(C)=C[C@@H]2c2c(O)cc(O)c3c(=O)c(CC=C(C)C)c(-c4ccc(O)cc4O)oc23)c1O` (some centres undefined), for which the T/C reads like this: (dose: 7.5 mg/kg/injection, schedule: Q01DX005 (ip), vehicle: Klucel (hydroxypropylcellulose) (HPC)) 92 % of control; (dose: 15.0 mg/kg/injection, schedule: Q01DX005 (ip), vehicle: Klucel (hydroxypropylcellulose) (HPC)) 97 % of control; (dose: 30.0 mg/kg/injection, schedule: Q01DX005 (ip), vehicle: Klucel (hydroxypropylcellulose) (HPC)) 93 % of control; (dose: 60.0 mg/kg/injection, schedule: Q01DX005 (ip), vehicle: Klucel (hydroxypropylcellulose) (HPC)) 108 % of control; (dose: 120.0 mg/kg/injection, schedule: Q01DX005 (ip), vehicle: Klucel (hydroxypropylcellulose) (HPC)) 92 % of control.

`COc1ccc2nc(C)c3c(c2c1)C(=O)N(CCCN1CCN(CCCN2C(=O)c4c(C)nc5ccc(OC)cc5c4C2=O)CC1)C3=O`: the T/C (dose: 6.25 mg/kg/injection, schedule: Q01DX005 (ip), vehicle: Klucel (hydroxypropylcellulose) (HPC)) is 93 % of control; the T/C (dose: 12.5 mg/kg/injection, schedule: Q01DX005 (ip), vehicle: Klucel (hydroxypropylcellulose) (HPC)) is 90 % of control; the T/C (dose: 25.0 mg/kg/injection, schedule: Q01DX005 (ip), vehicle: Klucel (hydroxypropylcellulose) (HPC)) is 96 % of control.

For the compound `CCOC(=O)C1=C(N)CCCC1`, the T/C (dose: 50.0 mg/kg/injection, schedule: Q01DX001 (ip), vehicle: Klucel (hydroxypropylcellulose) (HPC)) was 107 % of control; the T/C (dose: 100.0 mg/kg/injection, schedule: Q01DX001 (ip), vehicle: Klucel (hydroxypropylcellulose) (HPC)) was 96 % of control; the T/C (dose: 200.0 mg/kg/injection, schedule: Q01DX001 (ip), vehicle: Klucel (hydroxypropylcellulose) (HPC)) was 110 % of control; the T/C (dose: 400.0 mg/kg/injection, schedule: Q01DX001 (ip), vehicle: Klucel (hydroxypropylcellulose) (HPC)) was 99 % of control.

For `CC(=O)Nc1ccc(CC#N)cc1`, the T/C reads like this: (dose: 5.0 mg/kg/injection, schedule: Q01DX009 (ip), vehicle: saline sonified) 100 % of control; (dose: 10.0 mg/kg/injection, schedule: Q01DX009 (ip), vehicle: saline sonified) 100 % of control; (dose: 20.0 mg/kg/injection, schedule: Q01DX009 (ip), vehicle: saline sonified) 113 % of control.

Turning to `N=C(N)c1ccc2cc(/C=C/c3cc4ccc(C(=N)N)cc4o3)oc2c1`, the T/C by setting is: (dose: 100.0 mg/kg/injection, schedule: Q04DX003 (ip), vehicle: suspension in saline) 112 % of control; (dose: 200.0 mg/kg/injection, schedule: Q04DX003 (ip), vehicle: suspension in saline) 120 % of control.

Take `CN(C)c1nc(-c2ccccc2)c(Cc2ccccc2)c(=O)o1`: the T/C is 99 % of control under setting [4], 92 % of control under setting [5] and 89 % of control under setting [6].

In the case of `O=C(c1ccccc1)C(CN1CCCC1)CN1CCCC1`, the T/C by setting is: (dose: 12.5 mg/kg/injection, schedule: Q01DX005 (ip), vehicle: saline) 100 % of control; (dose: 25.0 mg/kg/injection, schedule: Q01DX005 (ip), vehicle: saline) 97 % of control; (dose: 50.0 mg/kg/injection, schedule: Q01DX005 (ip), vehicle: saline) 100 % of control and 102 % of control.
